Test results from US12662491B2 (Redona Therapeutics, Inc., priority 2020, dated 2026).
Where two headings read alike, the source gives them in different places.

Biological target: T1, Zcchc11 enzyme (Homo sapiens, UniProt Q5TAX3)
T1 construct: made in house; host or cells: HEK293 cells (Zcchc11); E. coli Rosetta II (LIN28A)
T1 sequence (Q5TAX3 212-1420): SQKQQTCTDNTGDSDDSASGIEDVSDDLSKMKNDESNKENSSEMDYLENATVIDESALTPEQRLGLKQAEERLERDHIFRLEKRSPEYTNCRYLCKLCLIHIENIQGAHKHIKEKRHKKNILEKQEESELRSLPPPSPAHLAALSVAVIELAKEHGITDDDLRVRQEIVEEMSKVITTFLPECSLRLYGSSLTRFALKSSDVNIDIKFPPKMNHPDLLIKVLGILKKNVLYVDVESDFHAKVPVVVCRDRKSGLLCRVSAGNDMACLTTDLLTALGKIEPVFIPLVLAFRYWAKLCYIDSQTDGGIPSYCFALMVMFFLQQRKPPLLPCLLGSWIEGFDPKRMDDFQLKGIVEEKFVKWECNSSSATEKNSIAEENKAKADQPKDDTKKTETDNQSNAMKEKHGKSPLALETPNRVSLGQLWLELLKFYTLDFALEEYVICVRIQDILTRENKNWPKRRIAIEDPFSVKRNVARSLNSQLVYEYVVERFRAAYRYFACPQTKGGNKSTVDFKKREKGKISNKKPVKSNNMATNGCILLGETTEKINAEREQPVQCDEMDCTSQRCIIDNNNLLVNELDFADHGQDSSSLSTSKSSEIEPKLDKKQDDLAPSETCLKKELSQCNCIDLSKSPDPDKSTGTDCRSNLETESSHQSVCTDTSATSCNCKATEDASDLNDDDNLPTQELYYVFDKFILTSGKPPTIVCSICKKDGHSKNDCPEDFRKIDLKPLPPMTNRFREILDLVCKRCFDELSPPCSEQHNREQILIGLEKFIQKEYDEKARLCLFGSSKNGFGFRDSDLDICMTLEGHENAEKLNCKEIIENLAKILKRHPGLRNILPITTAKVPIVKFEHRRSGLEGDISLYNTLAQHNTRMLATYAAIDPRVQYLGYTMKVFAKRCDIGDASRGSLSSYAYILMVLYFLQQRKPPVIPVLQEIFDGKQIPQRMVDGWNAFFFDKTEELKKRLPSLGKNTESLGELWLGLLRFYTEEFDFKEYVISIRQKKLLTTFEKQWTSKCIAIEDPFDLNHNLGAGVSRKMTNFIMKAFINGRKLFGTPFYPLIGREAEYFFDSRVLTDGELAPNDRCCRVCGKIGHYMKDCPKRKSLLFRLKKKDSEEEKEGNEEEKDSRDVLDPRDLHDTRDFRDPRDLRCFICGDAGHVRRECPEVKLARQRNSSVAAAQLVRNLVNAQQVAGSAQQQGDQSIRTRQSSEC
Experiment: TUTase assay (Zcchc11 assay, Lin28a-dependent polyuridylation of pre-let-7)
Type: biochemical
Conditions: read-out: Potency Lin28a-dep Z11 IC50
Summary of the method: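 Human Zcchc11 residues 212-1420 (HEK293-expressed, MBP tag cleaved, C-terminal FLAG) at 0.2 nM, with 10 nM full-length human LIN28A and 2 nM 5′-fluorescein pre-let-7, preincubated with compound 30 min at room temperature. Reaction started with 5 uM UTP plus 4 nM 3′-rhodamine A20 quench probe; fluorescein loss read kinetically, IC50 from initial rates.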

[1] = Lin28a-dependent Zcchc11 (Z11) TUTase assay
[2] = Lin28a-dependent Zcchc11 (Z11) TUTase activity
[3] = LIN28A 10 nM, Zcchc11 0.2 nM, 5′-fluorescein pre-let-7 miRNA 2 nM, UTP 5 uM, room temperature, 30 minutes pre-incubation

Compound | IC50 [1] | IC50 [2] | further results
O=C(O)c1cn(-c2cnc(CO)cn2)c2cc(N3CCC[C@@H]3COc3ncccc3Cl)c(Cl)cc2c1=O [Example 411, (R)-6-chloro-7-(2-(((3-chloropyridin-2-yl)oxy)methyl)pyrrolidin-1-yl)-1-(5-(hydroxy-methyl)pyrazin-2-yl)-4-oxo-1,4-dihydroquinoline-3-carboxylic acid] | ≤ 1 µM | – | –
CN(C)C1CN(c2ccc(-n3cc(C(=O)O)c(=O)c4cc(Cl)c(N5CCC[C@@H]5COc5ncco5)cc43)cn2)C1 [Example 587, (R)-6-chloro-1-(6-(3-(dimethylamino)azetidin-1-yl)pyridin-3-yl)-7-(2-((oxazol-2-yloxy)methyl)pyrrolidin-1-yl)-4-oxo-1,4-dihydroquinoline-3-carboxylic acid] | ≤ 1 µM | – | –
O=C(O)c1cn(-c2ccc3c(c2)CS(=O)(=O)N3)c2cc(N3CCC[C@@H]3COc3ncccc3Cl)c(Cl)cc2c1=O [Example 621, (R)-6-chloro-7-(2-(((3-chloropyridin-2-yl)oxy)methyl)pyrrolidin-1-yl)-1-(2,2-dioxido-1,3-dihydrobenzo[c]isothiazol-5-yl)-4-oxo-1,4-dihydroquinoline-3-carboxylic acid] | ≤ 1 µM | – | –
COc1ccnc(OC[C@H]2C[C@H]3C[C@H]3N2c2cc3c(cc2F)c(=O)c(C(=O)O)cn3-c2ccc(N(C)C)nc2)c1Cl [Compound 265, 7-((1R,3R,5R)-3-(((3-chloro-4-methoxy-pyridin-2-yl)oxy)methyl)-2-azabicyclo [3.1.0]hexan-2-yl)-1-(6-(dimethyl-amino)pyridin-3-yl)-6-fluoro-4-oxo-1,4-dihydro-quinoline-3-carboxylic acid] | – | ≤ 1 µM | –
Cc1cccnc1OC[C@H]1CCCN1c1cc2c(cc1Cl)c(=O)c(C(=O)O)cn2-c1ccc(N)nc1 [Compound 210, (R)-1-(6-aminopyridin-3-yl)-6-chloro-7-(2-(((3-methylpyridin-2-yl)oxy)methyl)pyrrolidin-1-yl)-4-oxo-1,4-dihydro-quinoline-3-carboxylic acid] | – | ≤ 1 µM | –
COc1cccc(-n2cc(C(=O)O)c(=O)c3cc(F)c(N4CCC[C@@H]4COc4ccccn4)cc32)c1 [Compound 146, (R)-6-fluoro-1-(3-methoxy-phenyl)-4-oxo-7-(2-((pyridin-2-yloxy)methyl)pyrrolidin-1-yl)-1,4-dihydro-quinoline-3-carboxylic acid] | – | ≤ 1 µM | –
CN(C)CCNc1ccc(-n2cc(C(=O)O)c(=O)c3cc(C#N)c(N4CCC[C@@H]4COc4ncccc4Cl)cc32)cn1 [Example 570, (R)-7-(2-(((3-chloropyridin-2-yl)oxy)methyl)pyrrolidin-1-yl)-6-cyano-1-(6-((2-(dimethylamino)ethyl)amino)pyridin-3-yl)-4-oxo-1,4-dihydroquinoline-3-carboxylic acid] | ≤ 1 µM | – | –
CN(C)C1CN(c2ccc(-n3cc(C(=O)O)c(=O)c4cc(Cl)c(N5CC[C@@H](F)[C@@H]5COc5ncccc5Cl)cc43)cn2)C1 [Example 664, 6-chloro-7-((2S,3R)-2-(((3-chloropyridin-2-yl)oxy)methyl)-3-fluoropyrrolidin-1-yl)-1-(6-(3-(dimethylamino)azetidin-1-yl)pyridin-3-yl)-4-oxo-1,4-dihydroquinoline-3-carboxylic acid] | ≤ 1 µM | – | –
O=C(O)c1cn(-c2ncccn2)c2cc(N3CCC[C@@H]3COc3ccccn3)c(Cl)cc2c1=O [Example 2, (R)-6-chloro-4-oxo-7-(2-((pyridin-2-yloxy)methyl)pyrrolidin-1-yl)-1-(pyrimidin-2-yl)-1,4-dihydroquinoline-3-carboxylic acid] | – | – | IC50 [3]: 1 to 10 µM
O=C(O)c1cn(-c2cccc(F)c2F)c2cc(N3CCC[C@@H]3COc3ccccn3)c(F)cc2c1=O [Compound 142, (R)-1-(2,3-difluorophenyl)-6-fluoro-4-oxo-7-(2-((pyridin-2-yloxy)methyl)pyrrolidin-1-yl)-1,4-dihydro-quinoline-3-carboxylic acid] | – | 1 to 10 µM | –
CN(C)C1CN(c2ccc(-n3cc(C(=O)O)c(=O)c4cc(Cl)c(N5CCC[C@@H]5COc5nc6ncn(C)c6cc5Cl)cc43)cn2)C1 [Compound 273, (R)-6-chloro-7-(2-(((6-chloro-1-methyl-1H-imidazo [4,5-b]pyridin-5-yl)oxy)methyl)pyrrolidin-1-yl)-1-(6-(3-(dimethyl-amino)azetidin-1-yl)pyridin-3-yl)-4-oxo-1,4-dihydro-quinoline-3-carboxylic acid formic acid] | – | ≤ 1 µM | –
COc1ccc(Cl)c(OC[C@H]2CC(C)(C)CN2c2cc3c(cc2Cl)c(=O)c(C(=O)O)cn3-c2ccc(N3CC(N(C)C)C3)nc2)n1 [Example 648, (R)-6-chloro-7-(2-(((3-chloro-6-methoxypyridin-2-yl)oxy)methyl)-4,4-dimethylpyrrolidin-1-yl)-1-(6-(3-(dimethylamino)azetidin-1-yl)pyridin-3-yl)-4-oxo-1,4-dihydroquinoline-3-carboxylic acid] | ≤ 1 µM | – | –
COCCn1cc(-n2cc(C(=O)O)c(=O)c3cc(Cl)c(N4CCC[C@@H]4COc4ncccc4Cl)cc32)cn1 [Example 435, (R)-6-chloro-7-(2-(((3-chloropyridin-2-yl)oxy)methyl)pyrrolidin-1-yl)-1-(1-(2-methoxy-ethyl)-1H-pyrazol-4-yl)-4-oxo-1,4-dihydroquinoline-3-carboxylic acid] | ≤ 1 µM | – | –
CN(C)C1CN(c2ccc(-n3cc(C(=O)O)c(=O)c4cc(Cl)c(N5C(COc6ncccc6Cl)CCS5(=O)=O)cc43)cn2)C1 (centres unmarked) [Example 47, 6-chloro-7-(3-(((3-chloropyridin-2-yl)oxy)methyl)-1,1-dioxidoisothiazolidin-2-yl)-1-(6-(3-(dimethylamino)azetidin-1-yl)pyridin-3-yl)-4-oxo-1,4-dihydroquinoline-3-carboxylic acid] | – | – | IC50 [3]: ≤ 1 µM
O=C(O)c1cn(-c2ccc(N3CCC3=O)nc2)c2nc(N3CCC[C@@H]3COc3ncccc3Cl)c(Cl)cc2c1=O [Example 531, (R)-6-chloro-7-(2-(((3-chloropyridin-2-yl)oxy)methyl)pyrrolidin-1-yl)-4-oxo-1-(6-(2-oxoazetidin-1-yl)pyridin-3-yl)-1,4-dihydro-1,8-naphthyridine-3-carboxylic acid] | ≤ 1 µM | – | –
O=C(O)c1cn2c3cc(c(Cl)cc3c1=O)N1CCC[C@@H]1COc1nc(ccc1Cl)OCCCNc1ccc-2cn1 [Example 55, (R)-26,63-dichloro-24-oxo-21,24-dihydro-5,7-dioxa-11-aza-2(1,7)-quinolina-1(5,2),6(2,6)-dipyridina-3(1,2)-pyrrolidinacycloundecaphane-23-carboxylic acid] | – | – | IC50 [3]: 10 to 50 µM
CC1(n2cc(C(=O)O)c(=O)c3cc(Cl)c(N4C(=O)CC[C@@H]4COc4ccccn4)cc32)CC1 [Example 24, (R)-6-chloro-1-(1-methylcyclopropyl)-4-oxo-7-(2-oxo-5-((pyridin-2-yloxy)methyl)pyrrolidin-1-yl)-1,4-dihydroquinoline-3-carboxylic acid] | – | – | IC50 [3]: > 50 µM
CN(C)C1CN(c2ccc(-n3cc(C(=O)O)c(=O)c4cc(Cl)c(N5CCC[C@@H]5COC5CCOC5)cc43)cn2)C1 (stereo partly drawn) [Example 594, 6-chloro-1-(6-(3-(dimethylamino)azetidin-1-yl)pyridin-3-yl)-4-oxo-7-((2R)-2-(((tetrahydro-furan-3-yl)oxy)methyl)pyrrolidin-1-yl)-1,4-dihydroquinoline-3-carboxylic acid] | 1 to 10 µM | – | –
O=C(O)c1cn(-c2ccc(F)cn2)c2cc(N3CCC[C@@H]3COc3ccccn3)c(F)cc2c1=O [Compound 150, (R)-6-fluoro-1-(5-fluoropyridin-2-yl)-4-oxo-7-(2-((pyridin-2-yloxy)methyl)pyrrolidin-1-yl)-1,4-dihydro-quinoline-3-carboxylic acid] | – | 1 to 10 µM | –
O=C(O)c1cn(-c2ccc(O)cc2Cl)c2cc(N3CCC[C@@H]3COc3ccccn3)c(F)cc2c1=O [Compound 152, (R)-1-(2-chloro-4-hydroxy-phenyl)-6-fluoro-4-oxo-7-(2-((pyridin-2-yloxy)methyl)pyrrolidin-1-yl)-1,4-dihydro-quinoline-3-carboxylic acid] | – | 1 to 10 µM | –
